Assay results published in publication PMC10174255, “Drug repurposing approach against chikungunya virus: an in vitro and in silico study” (Frontiers in Cellular and Infection Microbiology, 2023).
Where “and” joins values, the source holds several entries; their conditions need not be identical. Equal values may be shown once.

Assays:
[1] = tested on: Vero CCL-81 cells; test: MTT cytotoxicity assay; settings: Vero CCL-81, ≥90% cell viability
[2] = MTT cytotoxicity assay; settings: African green monkey
[3] = tested on: CHIKV; test: Immunofluorescence assay (percent infected cells); settings: posttreatment, IFA, compared to VC
[4] = tested on: CHIKV; test: Viral RNA copy number by quantitative RT-PCR
[5] = tested on: CHIKV; test: Antiviral assay (pre-, co-, posttreatment) with FFU readout; settings: for anti chikungunya activity: Vero CCL-81, any treatment condition; for IC50 / anti-CHIKV activity in primary screening: FFU; for IC50: Vero CCL-81; for anti-CHIKV activity in primary screening: highest nontoxic concentration
[6] = tested on: CHIKV; test: Time-of-addition assay (extra- and intracellular virus, FFU); settings: for reduction in extracellular virus titer compared to VC / reduction in intracellular virus titer compared to VC: 50 µM; for effectiveness at time points of addition: added 0, 3 and 6 h post infection
[7] = tested on: CHIKV; test: Western blot of viral capsid (C) protein; assay type: cell-based, Chikungunya virus; settings: posttreatment, maximal non-toxic concentration, normalized to β-actin
Description: To investigate the expression of viral proteins, a western blotting assay was performed. […] The cell cultures were subjected to different types of treatment with various concentrations of the appropriate drugs. Cells were lysed using the RIPA buffer and 2X laemmli buffer at 1:1 ratio. The cell culture lysates from uninfected, infected without treatment and infected treated cells were subjected to an electrophoretic run on 10% discontinuous SDS polyacrylamide gels followed by electroblotting onto nitrocellulose membranes. The membranes were then blocked for 30 minutes using phosphate-buffered saline (PBS) containing 5% bovine serum albumin. […] This monoclonal antibody is known to react with the capsid protein of CHIKV and was characterized and purified as described earlier ([Damle et al., 2016]). The membranes were thoroughly rinsed with tris-buffered saline with 0.1% Tween 20 (TBST) after overnight incubation (5 washes totaling a 20-minute soak with rocking), and then they were incubated with the appropriate horseradish peroxidase (HRP) conjugated anti-mouse IgG antibody for two hours while rocking. For developing the blot, ECL substrate (Thermo Scientific) was used in the dark. The image of the blot was captured using the Gel Documentation system (BioRad™, USA), and analysis was done. To quantify the protein signals (density) of the viral protein and housekeeping protein in each lane, ImageJ software was used. After calculating the signal values for each band, the background signals were subtracted from the signal. The relative level of viral protein was normalized to beta-actin (monoclonal antibody 15G5A11/E2, catalog no:MA1-140, Invitrogen, USA). Signal densities were determined using ImageJ software and were plotted using GraphPad Prism software version 7.

SMILES: COc1cc2c(cc1Cc1cccc(Cl)c1F)c(=O)c(C(=O)O)cn2[C@H](CO)C(C)C [Elvitegravir]
- The maximum nontoxic concentration used for primary screening of drugs against CHIKV [1]: 6.25 µM
- CC50 [2]: 12.7 ± 1.52 µM

SMILES: Oc1ccc(/C=C/c2cc(O)cc(O)c2)cc1 [Resveratrol]
- reduction in percentage of infected cells [3]: prominently observed
- effect on viral RNA copy number/titre ([4]; posttreatment): No reduction
- anti chikungunya activity [5]: exhibit anti chikungunya activity
- Selectivity Index (SI) ([5]; posttreatment): 23.74
- mean log10 viral titer/ml ([5]; posttreatment, 6.25 µM, VC 8.870): 8.261 log10 FFU/ml
- mean log10 viral titer/ml ([5]; posttreatment, 12.5 µM, VC 8.870): 7.486 log10 FFU/ml
- IC50 ([5]; posttreatment): 1.72 µM
- anti-CHIKV activity in primary screening ([5]; posttreatment): effective
- effect on extracellular titer of virus ([6]; 6.25 µM, added at 3 and 6 h): mild but significant reduction
- effect on intra- and extracellular virus titer ([6]; 12.5 µM, added at 0, 3 and 6 h): significant decrease
- The maximum nontoxic concentration used for primary screening of drugs against CHIKV [1]: 12.5 µM
- CC50 [2]: 40.9 ± 4.57 µM

SMILES: O=C(O)Cc1ccc(-c2ccccc2)cc1 [Felbinac]
- effect on viral RNA copy number/titre ([4]; pretreatment): did not have any effect
- anti chikungunya activity [5]: exhibit anti chikungunya activity
- Selectivity Index (SI) ([5]; pretreatment): 2205.88
- mean log10 viral titer/ml ([5]; pretreatment, 1.56 µM, VC 8.665): 7.175 log10 FFU/ml
- mean log10 viral titer/ml ([5]; pretreatment, 3.125 µM, VC 8.665): 7.040 log10 FFU/ml
- IC50 ([5]; pretreatment): 0.238 µM
- anti-CHIKV activity in primary screening ([5]; pretreatment): effective
- The maximum nontoxic concentration used for primary screening of drugs against CHIKV [1]: 3.125 µM
- CC50 [2]: 525 ± 200 µM

SMILES: CO[C@H]1C[C@@H]2CC[C@@H](C)[C@@](O)(O2)C(=O)C(=O)N2CCCC[C@H]2C(=O)O[C@H]([C@H](C)C[C@@H]2CC[C@@H](OC(=O)C(C)(CO)CO)[C@H](OC)C2)CC(=O)[C@H](C)/C=C(\C)[C@@H](O)[C@@H](OC)C(=O)[C@H](C)C[C@H](C)/C=C/C=C/C=C/1C [Temsirolimus]
- reduction in percentage of infected cells [3]: prominently observed
- decrease in RNA copy number of CHIKV compared to VC ([4]; posttreatment, 50 µM): 2.487 log10
- decrease in viral RNA copy number compared to VC ([4]; pretreatment, 50 µM): 0.809 log10
- anti chikungunya activity [5]: exhibit anti chikungunya activity
- reduction of CHIKV titre compared to VC ([5]; discussion summary): 4-5 log10
- Selectivity Index (SI) ([5]; posttreatment): 68.41
- mean log10 viral titer/ml ([5]; posttreatment, 25 µM, VC 8.870): 7.903 log10 FFU/ml
- mean log10 viral titer/ml ([5]; posttreatment, 50 µM, VC 8.870): 3.678 log10 FFU/ml
- IC50 ([5]; posttreatment): 6.04 µM
- anti-CHIKV activity in primary screening ([5]; posttreatment): effective
- Selectivity Index (SI) ([5]; pretreatment): 85.1 and 85.11
- mean log10 viral titer/ml ([5]; pretreatment, 25 µM, VC 8.665): 7.279 log10 FFU/ml
- IC50 ([5]; pretreatment): 4.86 µM
- anti-CHIKV activity in primary screening ([5]; pretreatment): effective
- reduction in extracellular virus titer compared to VC ([6]; added at 0 h and 3 h): ~ 4 log10
- reduction in intracellular virus titer compared to VC ([6]; added at 0 h and 3 h): ~ 3 log10
- reduction in extracellular virus titer compared to VC ([6]; added at 6 h): ~ 3 log10
- reduction in intracellular virus titer compared to VC ([6]; added at 6 h): ~ 2 log10
- effectiveness at time points of addition [6]: effective at all the three time points
- viral antigen (C protein) expression [7]: significant reduction
- The maximum nontoxic concentration used for primary screening of drugs against CHIKV [1]: 50 µM
- CC50 [2]: 413 ± 378 µM

SMILES: CC[C@H]1CN2CCc3cc(OC)c(OC)cc3[C@@H]2C[C@@H]1C[C@H]1NCCc2cc(OC)c(OC)cc21 [Emetine]
- effect on viral RNA copy number/titre ([4]; posttreatment): No significant reduction
- anti chikungunya activity [5]: exhibit anti chikungunya activity
- mean log10 viral titer/ml ([5]; posttreatment, 50 µM, VC 8.870): 7.802 log10 FFU/ml
- mean log10 viral titer/ml ([5]; posttreatment, 100 µM, VC 8.870): 7.550 log10 FFU/ml
- mean log10 viral titer/ml ([5]; posttreatment, 200 µM, VC 8.870): 7.306 log10 FFU/ml
- IC50 ([5]; posttreatment): 4.24 µM
- anti-CHIKV activity in primary screening ([5]; posttreatment): effective
- effect on intra- and extracellular virus titre ([6]; 200 µM, added at 6 h): significant reduction
- effect on intra- and extracellular virus titer ([6]; 50-200 µM, added at 0 and 3 h): significantly reduced
- The maximum nontoxic concentration used for primary screening of drugs against CHIKV [1]: 200 µM
- CC50 [2]: > 200 µM

SMILES: CC(C)(C(=O)c1cccnc1)c1cccnc1 [Metyrapone]
- log10 viral RNA copy number ([4]; pretreatment, 200 µM, VC 9.670): 8.984
- anti chikungunya activity [5]: exhibit anti chikungunya activity
- Selectivity Index (SI) ([5]; pretreatment): 457.80
- mean log10 viral titer/ml ([5]; pretreatment, 100 µM, VC 8.665): 7.136 log10 FFU/ml
- mean log10 viral titer/ml ([5]; pretreatment, 200 µM, VC 8.665): 7.115 log10 FFU/ml
- IC50 ([5]; pretreatment): 12.2 µM
- anti-CHIKV activity in primary screening ([5]; pretreatment): effective
- The maximum nontoxic concentration used for primary screening of drugs against CHIKV [1]: 200 µM
- CC50 [2]: 5600 ± 6100 µM

SMILES: Nc1nc(F)nc2nc[nH]c12 [2-Fluoroadenine]
- reduction in percentage of infected cells [3]: prominently observed
- effect on viral RNA copy number ([4]; pretreatment, 100 µM): significant reduction
- anti chikungunya activity [5]: exhibit anti chikungunya activity
- mean log10 viral titer/ml ([5]; posttreatment, 50 µM, VC 8.870): 7.686 log10 FFU/ml
- IC50 ([5]; posttreatment): 7.59 µM
- anti-CHIKV activity in primary screening ([5]; posttreatment): effective
- Selectivity Index (SI) ([5]; pretreatment): 45.56
- mean log10 viral titer/ml ([5]; pretreatment, 50 µM, VC 8.665): 7.284 log10 FFU/ml
- mean log10 viral titer/ml ([5]; pretreatment, 100 µM, VC 8.665): 7.185 log10 FFU/ml
- IC50 ([5]; pretreatment): 9.59 µM
- anti-CHIKV activity in primary screening ([5]; pretreatment): effective
- reduction in intra- and extracellular virus titer ([6]; 100 µM, time of addition 0, 3, 6 h): ~ 1 log10
- reduction in intra- and extracellular virus titers ([6]; 25 and 50 µM): Mild reduction
- effectiveness at time points of addition [6]: effective at all three time points
- viral antigen (C protein) expression [7]: significant reduction
- The maximum nontoxic concentration used for primary screening of drugs against CHIKV [1]: 100 µM
- CC50 [2]: 437 ± 320 µM
